{
  "source": "patent US8993320B2",
  "about": "“Culture method to obtain and maintain a pure or enriched population of mammalian neural stem cells and/or neural/progenitor cells that are prone to differentiate into oligodendrocyte-lineage cells in vitro” (priority 2011, dated 2015)",
  "assay_type_in_all_cases": "cell-based, human",
  "key": {"HFSC cells [1]": {"test_system": "HFSC cells", "experiment": "Expansion of HFSC cells with growth factors and supplements (live cell count)", "conditions": "for effect on expansion rate: either 50 μM 1-thioglycerol added or PDGF-AA increased to 100 ng/ml (not both), with 10 ng/ml bFGF+10 ng/ml IGF-1, passage 5; for concentration at which expansion rate / response is saturated: established cell line #2b; for effect on cell status (vacuoles, cell number): supplement to DMEM/F12 with glutamine, pyruvate, B27, 1% NEAA, 1 mM N-acetyl-cysteine, 55 μM β-mercaptoethanol, data not shown", "experimental": "FIG. 4 illustrates the expansion rate of HFSC cells (cell line #2b) in the presence of different combinations of growth factors: (1): 20 ng/ml PDGF-AA+10 ng/ml bFGF; (2): 20 ng/ml PDGF-AA+10 ng/ml bFGF+5 ng/ml NT-3; (3): 20 ng/ml PDGF-AA+10 ng/ml bFGF+10 ng/ml IGF-1; (4): 20 ng/ml PDGF-AA+10 ng/ml bFGF+5 ng/ml NT-3+10 ng/ml IGF-1. The cells were harvested at day 11 of passage 3 (P3D11) and number of live cells in each condition was counted. Then, they were passaged in the same condition that was used at passage 3 at the same cell density. The cells were harvested at day 8 of passage 4 (P4D8) and number of live cells in each condition was counted (these cells were harvested before they became sub-confluent because they started forming spheres). […] Condition (3) was effective at both passages. FIG. 5 illustrates the effects of high dose of PDGF-AA (100 ng/ml) and 1-thioglycerol on the proliferation of HFSC cells (cell line #2b); cultured in HFSCM1 medium in the presence of the following combinations of growth factors: (1): 20 ng/ml PDGF-AA+10 ng/ml bFGF+10 ng/ml IGF-1; (2): 20 ng/ml PDGF-AA+10 ng/ml bFGF+10 ng/ml IGF-1+50 μM 1-thioglycerol; (3): 100 ng/ml PDGF-AA+10 ng/ml bFGF+10 ng/ml IGF-1; (4): 100 ng/ml PDGF-AA+10 ng/ml bFGF+10 ng/ml IGF-1+50 μM 1-thioglycerol; (5): 100 ng/ml PDGF-AA+10 ng/ml bFGF+50 μM 1-thioglycerol. The cells were harvested at day 7 of passage 5 (these cells were harvested before they became sub-confluent because they started forming spheres as they did at passage 4) and number of live cells in each condition was counted. The combination of 20 ng/ml PDGF-AA+10 ng/ml bFGF was also tested, but the recovered cell number was too low to evaluate (less than 1×10^4 cells which was under the countable range) and its data was eliminated from this figure. The condition (1) could expand cells at passage 3 but couldn't expand cells at passage 5. […] When the addition of 50 μM 1-thioglycerol and the increase of PDGF-AA concentration to 100 ng/ml were combined [condition (4)], the cell expansion rate improved dramatically and the cells could be expanded successfully. […] The cell “expansion rate” refers to the cell number on a particular date divided by the initial cell number at the start of culture. Human 15-week fetal spinal cord was dissected from the spinal column, with the meninges and peripheral nerves removed. The tissue then was dissociated with Accutase and washed and cells obtained from human fetal spinal cord were placed in a culture vessel containing the following growth medium: DMEM/F12 containing 2.5 mM glutamine and 15 mM HEPES, 2% B27 supplement (Invitrogen™), 1% NEAA, 1.5 mM pyruvate (Invitrogen™), 55 μM β-mercaptoethanol (Invitrogen™), 1 mM N-acetyl-L-cysteine (Sigma-Aldrich™), 20 ng/ml PDGF-AA (R&D SYSTEMS™, Inc., Minneapolis, Minn., USA) and 10 ng/ml bFGF (R&D SYSTEMS™). Cells were then placed in an incubator maintained at 37° C., 5% O2, and 5% CO2. bFGF (10 ng/ml) was added daily to the culture medium. Medium was changed every 2-3 days during passage. Based on the preliminary experiments, growing cells were not so many in the presence of PDGF-AA and bFGF and many cells stopped proliferating or died within a few weeks. […] To remove cells that are not responsive to PDGF-AA and bFGF, cells were cultured in an ultra-low adhesion culture plate ([…] Inc., Corning, N.Y., USA). […] Spheres were collected at lower speed of centrifugation (300 rpm for collecting spheres vs. 1,000 rpm for collecting single cells) for medium change and passaging. After 9 days, cells were harvested and passaged onto poly-ornithine-coated culture vessels. After this period, cells were passaged every 7-14 days. […] In addition, the cells began to appear unhealthy, forming vacuoles in their cytoplasm. As mentioned in Example 1, inclusion of PDGF-AA and bFGF in the culture medium supported adequate growth of the HFSC cells initially, but the proliferation rate slowed after 2 passages. […]"}, "HFSC cells [2]": {"test_system": "HFSC cells", "experiment": "Differentiation of HFSC cells in serum-free medium (GD3/O4 staining, morphology)", "experimental": "FIG. 7 depicts spontaneous differentiation of HFSC cells in serum-free medium in slides A-F. Slides A and B are phase contrast images taken with an inverted microscope showing the morphological change of HFSC cells (cell line #2b) at passage 12, day 9 (FIG. 7, slides A & B) after being cultured in HFSCM1 medium supplemented with 20 ng/ml PDGF-AA, 10 ng/ml bFGF, 10 ng/ml IGF-1 and 50 μM 1-thioglycerol (FIG. 7, slide A) or without 1-thioglycerol (FIG. 7, slide B). HFSC cells were differentiated spontaneously without replenishing bFGF between changing medium. Even in the same condition, HFSC cells didn't differentiate if bFGF was replenished everyday and seemed to grow slowly. […] The ratio of oligodendrocyte progenitor cells and other cell types to differentiated cells (oligodendrocyte progenitor cells plus other cell types) were calculated and shown in FIG. 15, slide E. Oligodendrocyte progenitor cell was 99.1%±0.56% of differentiated cells whereas other cell types were 0.9%±0.56% of differentiated cells. […]"}, "HFSC cells [3]": {"test_system": "HFSC cells", "experiment": "Expansion of HFSC cells with growth factors and supplements (live cell count)", "conditions": "higher concentration of IGF-1 (50-500 ng/ml)"}},
  "data": [
    {"compound": "OCC(O)CS", "note": "(stereo not shown) [1-thioglycerol, reference compound]", "values": [
      {"measurement": "effect on expansion rate", "setting": "HFSC cells [1]", "result": "very little positive effect"}
    ]},
    {"compound": "platelet derived growth factor-AA [PDGF-AA]", "values": [
      {"measurement": "effect on spontaneous differentiation", "setting": "HFSC cells [2]; 40 ng/ml or higher PDGF-AA", "result": "blocked to differentiate"},
      {"measurement": "effect on expansion rate", "setting": "HFSC cells [1]", "result": "very little positive effect"},
      {"measurement": "concentration at which expansion rate / response is saturated", "setting": "HFSC cells [1]", "result": "10 to 20", "unit": "ng/mL"}
    ]},
    {"compound": "CC(=O)N[C@@H](CS)C(=O)O", "note": "[N-acetyl-cysteine, reference compound]", "values": [
      {"measurement": "effect on cell status (vacuoles, cell number)", "setting": "HFSC cells [1]", "result": "seemed to improve the cells' status"}
    ]},
    {"compound": "basic fibroblast growth factor [bFGF]", "values": [
      {"measurement": "concentration at which expansion rate / response is saturated", "setting": "HFSC cells [1]", "result": 20, "unit": "ng/mL"}
    ]},
    {"compound": "OCCS", "note": "[β-mercaptoethanol, reference compound]", "values": [
      {"measurement": "effect on cell status (vacuoles, cell number)", "setting": "HFSC cells [1]", "result": "seemed to improve the cells' status"}
    ]},
    {"compound": "insulin-like growth factor-1 [IGF-1]", "values": [
      {"measurement": "differentiated cells seen", "setting": "HFSC cells [3]", "result": "around 1%"},
      {"measurement": "concentration at which expansion rate / response is saturated", "setting": "HFSC cells [1]", "result": 40, "unit": "ng/mL"}
    ]},
    {"compound": "Nc1ncnc2c1nc(Sc1ccc(Cl)cc1)n2[C@@H]1O[C@@H]2COP(=O)(O)O[C@H]2[C@H]1O", "note": "[pCPT-cAMP, reference compound]", "values": [
      {"measurement": "induction of differentiation", "setting": "HFSC cells [2]; 100 μM, high density (3×10^4 cells/cm^2)", "result": "could induce differentiation"}
    ]}
  ]
}
